The source of these data is patent US6479487B1, “6, 9-disubstituted 2-[trans-(4-aminocyclohexyl)amino] purines” (Aventis Pharmaceuticals Inc., priority 1998, dated 2002).

Where “and” joins values, the source holds several entries; their conditions need not be identical. Equal values may be shown once. Where a name gives a salt, the structure may show the parent alone. Read-outs that look alike come from different tables or passages of the source.

One assay concerns the target T1, cdk2/cyclin E (Homo sapiens, UniProt P24941).
T1 construct: made in house; host or cells: insect cells (baculovirus co-infection)
Description: Cyclin-Dependent Kinase 2 Assay (cdk2/cyclin E, GST-Rb substrate). The conditions noted are these: recombinant cdk2/cyclin E, 10 μM ATP, 30 min at 30° C., several values in a cell = separate determinations, read-out: CDK-2 Inhibition IC50. Format: biochemical. Here is the method:
Substrate: GST-Rb as described above for cdk4/cyclin D1
Assay conditions for cdk2/cyclin E were identical to those for cdk4/cyclin D1 including the substrate. The concentration of recombinant cdk2/cyclin E in the assay was 0.1 μg per 100 μl assay. Incubation was for 30 min at 30° C.

The target in another assay is T2, cdk4/cyclin D1 (Homo sapiens, UniProt P11802).
T2 construct: made in house; host or cells: Sf9 insect cells (Bac-to-Bac baculovirus, pFastBac)
The experiment in a line: Cyclin-dependent Kinase 4 Assay (cdk4/cyclin D1, GST-Rb substrate). Format: biochemical. The following applies: cdk4/cyclin D1 insect cell lysate, 10 μM ATP, 30 min at 37° C., several values = separate determinations, read-out: CDK4 Inhibition IC50. On the procedure:
The IC50 values for cdk4 inhibition were by the following method:
The transformed bacteria were grown overnight to saturation, then diluted in YT broth and incubated at 37° C. for 2 h. The protein was induced by incubation with 0.1 mM isopropylthioglycoside for 3 h. Following sedimentation by centrifugation, the cells were lysed by sonication in STE buffer ([…] NaCl, 10 mM Tris, pH 8.0, 1 mM EDTA) containing 10% sarkosyl. Particulate matter was removed by centrifugation and the lysate was incubated with glutathione-Sepharose at 4° C. The beads were washed with kinase buffer and then quantitation of Coomassie blue-stained proteins separated by SDS-PAGE was performed using a protein standard of known concentration.
The cDNA for human cyclin D1 was cloned by RT PCR using […] from MCF-7 cells. […] Bacmid DNA was used to transfect Sf9 insect cells to produce recombinant virus. Following plaque purification of the virus, the viral preparations were amplified until high titer stocks were acheived.
Lysates were prepared by lysis of Sf9 cells coinfected with cdk4 and cyclin D1 in 50 mM HEPES, pH 7.5, 10 mM MgCl2, 1 mM DTT, 0.1 mM phenylmethylsulfonyl fluoride, 5 μg/ml aprotinin, and 5 μg/ml leupeptin using a PARR bomb under 500 p.s.i nitrogen pressure for 5 min at 4° C. Insoluble material was sedimented at 10,000×g for 20 min at 4° C. Glycerol was added to the supernatant to 10% and stored at −80° C. in aliquots.
Pre-wet Millipore Multiscreen 96-well filter plates (0.65 μm Durapore filters) with 200 μl kinase buffer (50 mM HEPES, pH 7.5, 10 mM MgCl2, 1 mM EGTA). GST-Rb (0.5 μg) bound to glutathione-Sepharose beads is added in 50 μl per well and the solution removed by application of vacuum. […] Add 0.1 μg cdk4/cyclin D1 (insect cell lysate) to initiate assay. Incubate 30 min at 37° C. Terminate reaction by filtration on Millipore Vacuum Manifold. Wash four times with TNEN (20 mM Tris, pH 8.0, 100 mM Na Cl, 1 mM EDTA, 0.5% nonidet P-40). After drying the plates at room temperature, the filter plates were placed in adapter plates (Packard) and 40 μl of Microscint-O® (Packard) was added to each well. Top Seal A film was used to cover the plates before counting in a Top Count Scintillation Counter.

For a further assay, the system named is MDA-MB-435. Description: In vitro tumor cell proliferation, MDA-MB-435. Format: cell-based. The conditions noted are these: values given with an undefined *, read-out: In vitro Tumor Cell Proliferation (IC50, μM) Breast MDA-MB-435. On the procedure: (§1) The proliferation of tumor cells was measured using a sulforhodamine B assay as described in Skehan, P., et al., J. Natl. Cancer Inst. […] Tumor cells were harvested with trypsin-EDTA, cells that excluded trypan blue were counted, added to 96-well plates and incubated overnight at 37° C. Drug was added to the wells following dilution in culture medium. Three days later, the medium was removed and replenished with medium containing fresh drug and incubated an additional 4 days. The cells were then fixed with 0.1 ml 10% trichloroacetic acid for 60 min at 4° C. The plates were rinsed five times with tap water, air-dried and stained for 30 min with 0.4% sulforhodamine B in 1% acetic acid and air-dried.
(§2) Alternatively, the CyQUANT cell proliferation assay was used to quantitate cell proliferation.
(§3) Alternatively, the CyQUANT cell proliferation assay was used to quantify tumor cell proliferation. Tumor cells were harvested with trypsin-EDTA, cells that excluded trypan blue were counted, added to 96-well plates and incubated overnight at 37° C. Drug was added to the wells following dilution in culture medium. Three days later the medium was removed and the plates frozen at −80° C. for at least 30 minutes.

In the next assay the test system is HT-29. The experiment in a line: In vitro tumor cell proliferation, HT-29. The conditions noted are these: many values given with an undefined *, read-out: In vitro Tumor Cell Proliferation (IC50, μM) Colon HT-29. Format: cell-based, human. On the procedure:
as §1, §2, §3
HT-29 is a human colon adenocarcinoma, moderately well-differentiated grade II (HTB 38);

Another assay has as its system A549. Description: In vitro tumor cell proliferation, A549. The following applies: many values given with an undefined *, read-out: In vitro Tumor Cell Proliferation (IC50, μM) Lung A549. Format: cell-based, human. Here is the method: as §1, §2, §3
A further assay deals with Colo-205. Description: In vitro tumor cell proliferation, Colo-205. It counts as cell-based. The following applies: values given with an undefined *, read-out: In vitro Tumor Cell Proliferation (IC50, μM) Colon Colo-205. On the procedure:
as §1, §2, §3

A further assay deals with DMS-114. The experiment in a line: In vitro tumor cell proliferation, DMS-114. It counts as cell-based, human. The conditions noted are these: many values given with an undefined *, read-out: In vitro Tumor Cell Proliferation (IC50, μM) Lung DMS-114. On the procedure: DMS-1 14: human small cell lung carcinoma;
as §1, §2, §3

The next assay relates to PC-3. Description: In vitro tumor cell proliferation, PC-3. It counts as cell-based, human. The conditions noted are these: many values given with an undefined *, read-out: In vitro Tumor Cell Proliferation (IC50, μM) Prostate PC-3. On the procedure:
as §1, §2, §3

The test system of the next assay is MDA-MB-231. The experiment in a line: In vitro tumor cell proliferation, MDA-MB-231. Format: cell-based, human. The conditions noted are these: sulforhodamine B or CyQUANT assay, many values given with an undefined *, read-out: In vitro Tumor Cell Proliferation (IC50, μM) Breast MDA-MB-231. On the procedure:
as §1, §2, §3
MDA-MB-23 1 is a human breast adenocarcinoma, hormone-independent (HTB 26);

For the next assay, the system named is DU145. Description: In vitro tumor cell proliferation, DU145. Format: cell-based, human. The following applies: many values given with an undefined *, read-out: In vitro Tumor Cell Proliferation (IC50, μM) Prostate DU145. On the procedure:
as §1, §2, §3

Setting [1] is: Homo sapiens, MDA-MB-435, MDA-MB-435.
Setting [2] is: Homo sapiens, MDA-MB-231, MDA-MB-231.

T2 sequence (P11802 whole entry): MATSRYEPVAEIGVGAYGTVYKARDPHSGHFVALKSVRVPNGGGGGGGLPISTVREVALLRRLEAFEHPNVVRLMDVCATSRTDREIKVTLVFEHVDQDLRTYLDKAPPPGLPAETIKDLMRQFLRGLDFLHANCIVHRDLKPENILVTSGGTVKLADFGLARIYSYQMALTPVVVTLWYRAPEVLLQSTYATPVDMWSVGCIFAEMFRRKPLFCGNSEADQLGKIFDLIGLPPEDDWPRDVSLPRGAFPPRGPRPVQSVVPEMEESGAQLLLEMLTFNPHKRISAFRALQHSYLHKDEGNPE
T2 sequence (P24385 whole entry partner): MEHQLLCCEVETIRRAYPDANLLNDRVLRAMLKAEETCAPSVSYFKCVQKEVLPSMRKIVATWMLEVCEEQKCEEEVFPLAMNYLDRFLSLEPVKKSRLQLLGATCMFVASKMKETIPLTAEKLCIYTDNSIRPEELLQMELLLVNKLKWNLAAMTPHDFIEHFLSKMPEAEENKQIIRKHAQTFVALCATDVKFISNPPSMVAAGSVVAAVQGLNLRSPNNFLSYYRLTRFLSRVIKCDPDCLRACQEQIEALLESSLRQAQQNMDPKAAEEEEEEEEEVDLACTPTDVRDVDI

Consider `NC1CCC(Nc2nc(NC(c3ccc(Cl)cc3)C3CC3)c3ncn(C4CCCC4)c3n2)CC1` (racemic) [Example 24, (+/−)-2-[Trans-(4-aminocyclohexyl)amino]-6-[(α-cyclopropyl-4-chlorobenzyl)amino]-9-cyclopentylpurine dihydrochloride], for which the IC50 on cdk2/cyclin E was 27100 nM; at cdk4/cyclin D1 it was 4600 nM and 10000 nM.

Turning to `N[C@H]1CC[C@H](Nc2nc(NNc3ccccc3Cl)c3ncn(C4CCCC4)c3n2)CC1` [Example 2, 2-[Trans-(4-aminocyclohexyl)amino]-6-(2-chlorophenylhydrazino)-9-cyclopentylpurine dihydrochloride], the IC50 on cdk2/cyclin E was 120 nM and 100 nM; at cdk4/cyclin D1 it was 1300 nM and 1000 nM; in the assay with MDA-MB-435 (setting [1]), 8 µM; in the assay on MDA-MB-435 (MDA-MB-435, dihydrochloride), 8.2 µM; with HT-29 (HT-29, dihydrochloride) it was 2.5 µM and 4.1 µM; in the assay on HT-29 (Homo sapiens, HT-29, HT-29), 2.4 µM. In addition, the IC50 in the assay with A549 (A549, dihydrochloride) was 2.2 µM and 1.8 µM; in the assay with A549 (Homo sapiens, A549, A549), 1.7 µM.

Regarding `COc1cccc(OC)c1CNc1nc(N[C@H]2CC[C@H](N)CC2)nc2c1ncn2C1CCCC1` [Example 4, 2-[Trans-(4-aminocyclohexyl)amino]-6-[(2,6-dimethoxybenzyl)amino]-1-9-cyclopentylpurine dihydrochloride], the IC50 on cdk2/cyclin E was 19400 nM; on cdk4/cyclin D1 it was 46000 nM and > 100000 nM.

Take `COCCOCCCNc1nc(N[C@H]2CC[C@H](N)CC2)nc2c1ncn2C1CCCC1` [Example 15, 2-[Trans-(4-aminocyclohexyl)amino]-6-[3-(2-methoxyethoxy)propylamino]-9-cyclopentylpurine dihydrochloride]: the IC50 at cdk2/cyclin E turned out to be 16 nM; at cdk4/cyclin D1, 40 nM; with HT-29 (Homo sapiens, HT-29, HT-29) it was 2.1 µM; in the assay with Colo-205 (Colo-205, dihydrochloride), 1.7 µM; with Colo-205 (Homo sapiens, COLO 205, Colo-205), 1.6 µM; in the assay with DMS-114 (DMS-114, dihydrochloride), 1.9 µM. Besides, the IC50 in the assay with DMS-114 (Homo sapiens, DMS-114, DMS-114) was 1.8 µM; in the assay on PC-3 (Homo sapiens, PC-3, PC-3), 1.4 µM; with PC-3 (PC-3, dihydrochloride), 1.2 µM.

Take `COCCNc1nc(N[C@H]2CC[C@H](N)CC2)nc2c1ncn2C1CCCC1` [Example 16, 2-[Trans-(4-aminocyclohexyl)amino]-6-(2-methoxyethylamino)-9-cyclopentylpurine dihydrochloride]: the IC50 at cdk2/cyclin E was 55 nM and 30 nM; at cdk4/cyclin D1 it was 230 nM and 280 nM; in the assay on MDA-MB-231 (setting [2]) it was 4.7 µM; in the assay with MDA-MB-231 (MDA-MB-231, dihydrochloride) it was 4.1 µM; in the assay on MDA-MB-435 (setting [1]), 9.2 µM; with MDA-MB-435 (MDA-MB-435, dihydrochloride) it was 7.6 µM. Besides, the IC50 in the assay with HT-29 (HT-29, dihydrochloride) turned out to be 6.3 µM; with HT-29 (Homo sapiens, HT-29, HT-29) it was 6.4 µM; in the assay on DMS-114 (DMS-114, dihydrochloride) it was 4.4 µM; in the assay on DMS-114 (Homo sapiens, DMS-114, DMS-114) it was 4.8 µM; with DU145 (DU145, dihydrochloride), 3.3 µM; with DU145 (Homo sapiens, DU-145, DU145), 2.5 µM.

As to `CCN(CC)CCCNc1nc(N[C@H]2CC[C@H](N)CC2)nc2c1ncn2C1CCCC1` [Example 18, 2-[Trans-(4-aminocyclohexyl)amino]-6-[(3-diethylamino)propylamino]-9-cyclopentylpurine dihydrochloride], the IC50 came out at 1000 nM on cdk2/cyclin E and 1400 nM at cdk4/cyclin D1.

Turning to `COc1cccc(CNc2nc(N[C@H]3CC[C@H](N)CC3)nc3c2ncn3C(C)C)c1OC` [Example 30, 2-[Trans-(4-aminocyclohexyl)amino]-6-[(2.3-dimethoxybenzyl)amino]-9-(2-propyl)purine dihydrochloride], the IC50 at cdk2/cyclin E is 1400 nM; at cdk4/cyclin D1, 2400 nM.

`N[C@H]1CC[C@H](Nc2nc(NCCNc3ccccc3)c3ncn(C4CCCC4)c3n2)CC1` [Example 31, 2-[Trans-(4-aminocyclohexyl)amino]-6-[2-(phenylamino~ethylamino]-9-cyclopentylpurinetrihydrochloride]: the IC50 on cdk2/cyclin E stood at 400 nM; on cdk4/cyclin D1 it was 100 nM; in the assay on MDA-MB-231 (setting [2]), 2.1 µM; in the assay on MDA-MB-231 (MDA-MB-231, trihydrochloride), 2.4 µM; in the assay with MDA-MB-435 (setting [1]) it was 3.1 µM; with MDA-MB-435 (MDA-MB-435, trihydrochloride), 2.6 µM. Also, the IC50 was 2.5 µM in the assay on HT-29 (HT-29, trihydrochloride); 2.4 µM in the assay with HT-29 (Homo sapiens, HT-29, HT-29); 2.1 µM in the assay with A549 (A549, trihydrochloride); 1.6 µM in the assay on A549 (Homo sapiens, A549, A549); 1.8 µM in the assay on DMS-114 (DMS-114, trihydrochloride); 2.4 µM in the assay with DMS-114 (Homo sapiens, DMS-114, DMS-114). Further, the IC50 was 2.3 µM with PC-3 (Homo sapiens, PC-3, PC-3); 1.9 µM with PC-3 (PC-3, trihydrochloride); 1.8 µM with DU145 (DU145, trihydrochloride); 1.9 µM in the assay with DU145 (Homo sapiens, DU-145, DU145).
